Results taken from patent publication US20040137455A1, “Diagnosis of cancer or benign tumor using the aberrant expression product of the klk4 gene” (priority 2001, published 2004).

Legend:
[1] = system: K4 protein in the KLE cell line; assay: Western analysis of K4 protein levels in KLE cells after steroid treatment; type: cell-based, human; details: KLE endometrial cancer cell line, 10 nmol/L steroid, 48 h, 200 μg intracellular protein
Protocol: The endometrial cancer cell lines, Ishikawa (well differentiated), HEC1A, HEC1B, RL95-2 (moderately differentiated) and KLE (poorly differentiated) and the prostate cancer cell line LNCaP, used for a control, were obtained from the American Type Culture Collection, Rockville, Md. Prostate and kidney control tissue was obtained from Royal Brisbane Hospital and Princess Alexandra Hospital respectively. All cell lines were cultured in DMEM (Life Technologies, Rockville, Md.) with 10% FCS, 50 U/mL Penicillin G and 50 μg/mL Streptomycin (CSL Biosciences, Melbourne, Australia) at 37 C and 5% CO2. The regulation studies were performed in triplicate in the KLE cell line using phenol red and FCS-free media. After 24 h, fresh media was supplemented with 10 nmol/L 17β-estradiol or progesterone, (Sigma Chemical Company, St Louis, Mo.) and the cells were maintained for 48 h with these steroids. In addition, […] progesterone was added to one group of oestrogen-treated cells after 24 h. […] Detection was determined using X-ray film and visualisation of the chemiluminescence signal. Fold changes in the level of signal were assessed using the Hewlett Packard Scan Jet IICX and ImagQuant™ 4.21A software (Molecular Dynamics, Amersham)

[2] = system: hK4 intracellular levels in OVCAR-3; assay: Western blot and densitometry of hK4 intracellular levels in OVCAR-3 cells (oestrogen regulation); type: cell-based, human
Source text: Normal ovary and ovarian tumour samples were obtained at surgery from women who underwent laparotomy for benign and malignant conditions in the Department of Obstetrics and Gynaecology at the Royal Women's Hospitals and Monash Medical Centre. Ethics approval was obtained from the respective institutional Ethics Committees and informed consent was obtained from all patients. Epithelial cells from normal, benign and malignant ovaries were isolated from some of these tissue samples and the primary cultured cells were grown in M199 (Sigma, St. Louis, Mo., USA) and MCDB 105 (Sigma) media supplemented with 10% FCS and 10 ng/mL human epidermal growth factor (Boehringer Mannheim, Germany) (17). The ovarian cancer cell lines, that were used in this study, were derived from late stage serous carcinomas with well (PEO14 and OAW42), moderate (SKOV-3 and OVCAR-3) or poor (JAM, CI-80-13S, PEO1 and PEO4) differentiation. SKOV-3 and OVCAR-3 were from American Type Culture Collection, and the remainder have been described previously (18, 19). These cell lines were grown in RPMI (Life Technologies, Inc., Gaithersburg. MD, USA) supplemented with 10% FCS. For the oestrogen regulation study, OVCAR-3 cells were grown to 50% confluency. […]

SMILES | levels of K4 protein elevated compared to the control [1] [fold] | effect on intracellular hK4 levels (densitometry of Western blot) ([2]; OVCAR-3, 100 nM, over 30 hrs) | up-regulation of hK4 intracellular levels ([2]; OVCAR-3 ovarian carcinoma cell line, 100 nM, 8-30 hr, time dependent)
C[C@]12CC[C@@H]3c4ccc(O)cc4CC[C@H]3[C@@H]1CC[C@@H]2O [estradiol, 17β-estradiol] | 16 | up-regulation | 1.5-4 fold
CC(=O)[C@H]1CC[C@H]2[C@@H]3CCC4=CC(=O)CC[C@]4(C)[C@H]3CC[C@]12C [progesterone] | 27 |  | 
